Data from US11897880B2, “7,8-dihydrobenzo[e]pyrido[3,4-c]azocine-2,5(3H,6H)-dione derivatives useful as a factor XIa inhibitors” (Janssen Pharmaceutica NV, priority 2021, dated 2024).
Peptide text beside a SMILES is read from it. * marks the point of attachment. 5FAM = O=C1OC2(c3ccc(O)cc3Oc3cc(O)ccc32)c2ccc(C(=O)*)cc21; AMC = Cc1cc(=O)oc2cc(N*)ccc12; Cbz = O=C(OCc1ccccc1)*

Assays:
Format in all cases: biochemical
Factor XIa [1] = target: T1, Factor XIa (Homo sapiens, UniProt P03951); experiment: Kinetic parameters of the peptide substrate 5Fam-KLTRAETV-K5Tamra with FXIa (substrate inhibition model)
T1 sequence (P03951 388-625 limits assumed): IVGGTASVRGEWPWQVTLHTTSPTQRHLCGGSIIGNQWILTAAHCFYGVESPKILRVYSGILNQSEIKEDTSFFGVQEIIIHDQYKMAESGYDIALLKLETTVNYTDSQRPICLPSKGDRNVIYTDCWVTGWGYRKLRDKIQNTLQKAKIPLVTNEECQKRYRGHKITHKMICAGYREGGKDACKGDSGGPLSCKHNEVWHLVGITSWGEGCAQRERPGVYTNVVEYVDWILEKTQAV
T1 sequence (P03951 19-387 partner limits assumed): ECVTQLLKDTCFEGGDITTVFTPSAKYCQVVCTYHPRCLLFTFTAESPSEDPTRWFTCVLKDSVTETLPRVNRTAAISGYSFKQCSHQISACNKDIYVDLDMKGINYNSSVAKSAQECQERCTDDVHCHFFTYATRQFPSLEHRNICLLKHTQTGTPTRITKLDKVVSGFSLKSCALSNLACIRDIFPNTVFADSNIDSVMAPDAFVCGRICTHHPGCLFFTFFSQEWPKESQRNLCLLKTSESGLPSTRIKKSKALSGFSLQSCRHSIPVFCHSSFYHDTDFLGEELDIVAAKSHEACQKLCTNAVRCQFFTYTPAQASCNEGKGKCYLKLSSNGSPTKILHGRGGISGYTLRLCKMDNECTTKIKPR
Text: A fluorescence intensity (FLINT) based assay was used to monitor inhibition of Factor XIa. The peptide substrate, 5Fam-KLTRAETV-K5Tamra (purchased from New England Peptide) was chosen based on the FXI sequence. Conversion of zymogen FXI to its activated form, FXIa, occurs by proteolytic cleavage by […] at two sites, Arg146 and Arg180. The custom peptide used in this assay was based on the Arg146 cleavage site of FXI. The peptide substrate was designed with a fluorophore-quencher pair, where the fluorescence is quenched until FXIa cleaves the 8-mer peptide after the Arg residue.

Factor XIa [2] = target: T1, Factor XIa; experiment: Factor XIa inhibition assay utilizing a fluorophore-quencher pair peptide substrate (FLINT); conditions: for IC50: 30 min preincubation, 5Fam-KLTRAETV-K5Tamra substrate 15 μM final, kinetic reads, read-out: FXIa IC50; for Ki: read-out: FXIa Ki
Procedure, shortened: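 Enzyme preincubated 30 min at room temperature with compound (11-point 3-fold dilution, top 100 nM, 2% DMSO), then 15 μM 5Fam-KLTRAETV-K5Tamra substrate added. Buffer: 50 mM Tris pH 7.5, 100 mM NaCl, 5 mM CaCl2, 0.1 mg/mL BSA, 0.03% CHAPS. Fluorescence (485/520 nm) read kinetically over 30 min; IC50 from 4-parameter logistic fit.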

human plasma kallikrein [3] = target: T2, human plasma kallikrein (Homo sapiens, UniProt P03952); experiment: Kallikrein inhibition assay utilizing a quenched AMC peptide substrate (FLINT); conditions: 30 min preincubation, 50 μM Z-Gly-Pro-Arg-AMC, 2 nM kallikrein
T2 sequence (P03952 391-638 limits assumed): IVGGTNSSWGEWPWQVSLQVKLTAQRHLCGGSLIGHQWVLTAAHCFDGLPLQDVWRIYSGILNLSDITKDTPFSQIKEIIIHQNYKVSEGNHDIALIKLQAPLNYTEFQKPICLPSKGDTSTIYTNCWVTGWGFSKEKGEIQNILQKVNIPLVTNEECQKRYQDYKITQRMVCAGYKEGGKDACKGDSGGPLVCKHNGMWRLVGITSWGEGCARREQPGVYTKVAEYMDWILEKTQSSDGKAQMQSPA
T2 sequence (P03952 20-390 partner limits assumed): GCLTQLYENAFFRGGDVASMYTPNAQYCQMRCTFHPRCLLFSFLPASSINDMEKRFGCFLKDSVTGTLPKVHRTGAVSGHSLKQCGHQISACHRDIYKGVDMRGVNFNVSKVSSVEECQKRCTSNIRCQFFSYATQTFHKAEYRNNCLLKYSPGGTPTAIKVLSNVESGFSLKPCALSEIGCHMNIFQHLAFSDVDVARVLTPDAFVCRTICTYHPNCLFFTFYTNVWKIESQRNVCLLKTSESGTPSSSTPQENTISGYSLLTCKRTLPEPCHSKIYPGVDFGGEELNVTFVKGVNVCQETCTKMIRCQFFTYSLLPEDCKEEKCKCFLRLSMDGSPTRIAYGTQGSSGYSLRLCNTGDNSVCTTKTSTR
Procedure, shortened: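 Human plasma kallikrein (2 nM final) was preincubated 30 min at room temperature with compound (11-point 3-fold dilution, top 1 μM, 2% DMSO) in pH 7.5 Tris buffer with CaCl2, BSA and CHAPS. Z-Gly-Pro-Arg-AMC (50 μM final) fluorescence was read at 340/440 nm every 5 min for 30 min. IC50 came from a 4-parameter logistic fit.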

human plasma kallikrein [4] = target: T2, human plasma kallikrein; experiment: Kinetic parameters of the substrate Z-Gly-Pro-Arg-AMC with kallikrein (Michaelis-Menten fit)
Text: A fluorescence intensity (FLINT) based assay was used to monitor inhibition of human plasma kallikrein. The peptide substrate, Z-Gly-Pro-Arg-AMC (Purchased from Bachem; Catalog #1-1150) was chosen based on its relatively low KM for kallikrein which enables running the assay at lower substrate concentrations to control background fluorescence.

| Ki (Factor XIa [1]; substrate inhibition constant) | Km (Factor XIa [1]; substrate with FXIa) | kcat (Factor XIa [1]; substrate with FXIa) | IC50 (Factor XIa [2]) | Ki (Factor XIa [2]) | IC50 (human plasma kallikrein [3]) | kcat (human plasma kallikrein [4]) | Molecule |
| --- | --- | --- | --- | --- | --- | --- | --- |
| 61600 nM | 12.4 µM | 0.86 s⁻¹ |  |  |  |  | 5Fam-KLTRAETV-K5Tamra (5FAM-KLTRAETV-{K(5-TAMRA)}) [fluorophore-quencher pair peptide substrate based on the Arg146 cleavage site of FXI, purchased from New England Peptide] |
|  |  |  | 1.5 nM | 0.8 nM | 540 nM |  | Nc1ccc(-c2[nH]c(C3CCc4c5c(cc(=O)n43)-c3cc(Cl)ccc3CC3(CC3)NC5=O)nc2F)c(F)n1 (stereo not shown) [Compound 1, 12-(5-(6-amino-2-fluoropyridin-3-yl)-4-fluoro-1H-imidazol-2-yl)-7-chloro-13,14-dihydro-2H-spiro[benzo[5,6]azocino[4,3-g]indolizine-3,1′-cyclopropane]-1,10(4H,12H)-dione] |
|  |  |  | 3 nM | 1.5 nM | 470 nM |  | Nc1ccc(-c2cnc(C3CCc4c5c(cc(=O)n43)-c3cc(Cl)ccc3CC3(CC3)NC5=O)[nH]2)c(F)n1 (stereo not shown) [Compound 2, 12-(5-(6-amino-2-fluoropyridin-3-yl)-1H-imidazol-2-yl)-7-chloro-13,14-dihydro-2H-spiro[benzo[5,6]azocino[4,3-g]indolizine-3,1′-cyclopropane]-1,10(4H,12H)-dione] |
|  |  |  | 15.3 nM | 7.6 nM | 790 nM |  | O=C1NC2(CC2)Cc2ccc(Cl)c(F)c2-c2cc(=O)n3c(c21)CCC3c1ncc(-c2ccnc(CO)c2F)[nH]1 (stereo not shown) [Compound 3, 7-chloro-8-fluoro-12-(5-(3-fluoro-2-(hydroxymethyl)pyridin-4-yl)-1H-imidazol-2-yl)-13,14-dihydro-2H-spiro[benzo[5,6]azocino[4,3-g]indolizine-3,1′-cyclopropane]-1,10(4H,12H)-dione] |
|  |  |  | 0.2 nM | 0.1 nM | 70 nM |  | Nc1ccc(-c2cnc([C@@H]3CCc4c5c(cc(=O)n43)-c3c(ccc(Cl)c3F)CC3(CC3)NC5=O)[nH]2)c(Cl)n1 [Compound 52, (S)-12-(5-(6-amino-2-chloropyridin-3-yl)-1H-imidazol-2-yl)-7-chloro-8-fluoro-13,14-dihydro-2H-spiro[benzo[5,6]azocino[4,3-g]indolizine-3,1′-cyclopropane]-1,10(4H,12H)-dione] |
|  |  |  | 1 nM | 0.5 nM | 120 nM |  | COC(=O)Nc1ccc(-c2cnc([C@H](CC3CC3)n3cc4c(cc3=O)-c3c(ccc(Cl)c3F)CC3(CC3)NC4=O)[nH]2)cc1 [Compound 61, Methyl (S)-(4-(2-(1-(11-chloro-12-fluoro-2,5-dioxo-2,5,6,8-tetrahydro-3H-spiro[benzo[e]pyrido[3,4-c]azocine-7,1′-cyclopropan]-3-yl)-2-cyclopropylethyl)-1H-imidazol-5-yl)phenyl)carbamate] |
|  |  |  |  |  |  | 0.76 s⁻¹ | Cc1cc(=O)oc2cc(NC(=O)[C@H](CCCNC(=N)N)NC(=O)[C@@H]3CCCN3C(=O)CNC(=O)OCc3ccccc3)ccc12 [Z-Gly-Pro-Arg-AMC] (Cbz-Gly-Pro-Arg-{AMC}) |
